Experimental data reported in patent US9512175B2, “Macrocyclic inhibitors of flaviviridae viruses” (Gilead Sciences, Inc., priority 2012, dated 2016).
Where two headings read alike, the source gives them in different places.

Assays:
[1] = tested on: HCV replicon (Replicon 1a); assay: anti-HCV activity in Huh-7 cell line harboring a HCV replicon (Replicon 1a); type: cell-based; conditions: Hepatitis C virus, Huh-7, 72 h
cyclophilin A = cyclophilin A (Homo sapiens, UniProt P62937); assay: Cyclophilin A TR-FRET competitive binding assay; conditions: IC50 ranges, competition with CsA-Cy5 for His-tagged CypA, two-hour incubation
cyclophilin A, sequence (P62937 whole entry, species assumed): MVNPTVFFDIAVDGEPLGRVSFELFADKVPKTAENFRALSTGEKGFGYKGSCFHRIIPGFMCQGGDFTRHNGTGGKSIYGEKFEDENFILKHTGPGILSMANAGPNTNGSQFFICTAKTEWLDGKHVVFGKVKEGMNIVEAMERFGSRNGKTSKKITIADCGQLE
Protocol: Cyclophilin A TR-FRET Competitive Binding Assay
Inhibitor potency was measured using a competitive binding assay with a time-resolved fluorescence resonance energy transfer (TR-FRET) readout. […] An IC50 value was calculated using a four-parameter logistic fit.

[2] = read-out: Replicon 1a % inhibition at 1 μM
[3] = read-out: Replicon 1a % inhibition at 1 μM, 1 μM, human hepatoma Huh-7 HCV replicon cells, 3 days, luciferase readout

| SMILES | inhibition at 1 µM [1, 2] [%] | IC50 (cyclophilin A; TR-FRET) [nM] | inhibition at 1 µM [1, 3] [%] | IC50 (cyclophilin A; read-out: TR-FRET) [nM] |
| --- | --- | --- | --- | --- |
| CC(C)[C@@H]1NC(=O)[C@](C)(CO)/C=C/c2ccc3ccc(nc3c2)[C@@H](C)OC(=O)[C@@H]2CCCN(N2)C(=O)[C@H](C)NC1=O [Compound 80] | 97 | < 100 | – | – |
| CC(C)[C@@H]1NC(=O)[C@@](C)(CO)/C=C/c2ccc3ccc(cc3c2)[C@@H](C)OC(=O)[C@@H]2CCCN(N2)C(=O)[C@H](C)NC1=O [Compound 104] | – | – | 98 | < 100 |
| CC(C)[C@@H]1NC(=O)C(C)(C)/C=C/c2ccc3ccc(nc3c2F)[C@@H](C)OC(=O)[C@@H]2CCCN(N2)C(=O)[C@H](C)NC1=O [Compound 170] | – | – | 100 | < 100 |
| CC(C)[C@@H]1NC(=O)[C@](C)(COCC[Si](C)(C)C)/C=C/c2ccc3ccc(nc3c2)[C@@H](C)OC(=O)[C@@H]2CCCN(N2)C(=O)[C@H](C)NC1=O [Compound 79] | 96 | < 100 | – | – |
| CC(C)[C@@H]1NC(=O)C2(/C=C/c3ccc4ccc(nc4c3)[C@@H](C)OC(=O)[C@@H]3CCCN(N3)C(=O)[C@H](C)NC1=O)CCOCC2 [Compound 153] | – | – | 100 | < 100 |
| CC(C)[C@@H]1NC(=O)C(C)(C)/C=C/c2ccc3ccc(nc3c2)[C@@H](C)OC(=O)[C@@H]2CCCN(N2)C(=O)[C@H](CC2CCOCC2)NC1=O (single isomer, unassigned) [Compound 112] | – | – | 96 | < 100 |
| CC(C)[C@@H]1NC(=O)C/C=C/c2ccc3ccc(cc3n2)[C@@H](C)OC(=O)[C@@H]2CCCN(N2)C(=O)[C@H](C)NC1=O [Compound 16] | – | – | 94 | 101 to 1000 |
| CC(C)[C@@H]1NC(=O)C(C)(C)COc2cc3cc(ccc3cn2)[C@@H](C)OC(=O)[C@H]2CCCN(N2)C(=O)[C@H](C)NC1=O [Compound 69] | – | – | 19 | 1000 to 10000 |
| CC(C)[C@@H]1NC(=O)[C@H](C)[C@H](O)CC/C=C/c2cccc(c2)[C@@H](C)NC(=O)[C@@H]2CCCN(N2)C(=O)[C@H](C)NC1=O [Compound 1, (E)-(2R,5S,11S,14S,17R,18R)-18-Hydroxy-14-isopropyl-2,11,17-trimethyl-3,9,12,15,28-pentaaza-tricyclo[21.3.1.1*5,9*]octacosa-1(26),21,23(27),24-tetraene-4,10,13,16-tetraone] | – | – | 32 | < 100 |
| CC(C)[C@@H]1NC(=O)C(C)(C)/C=C/c2ccc3ccc(nc3c2)[C@@H](C)OC(=O)[C@@H]2CCCN(N2)C(=O)[C@H](CC(=O)O)NC1=O [Compound 93] | – | – | 68 | < 100 |
| CC(C)[C@@H]1NC(=O)C(C)(C)/C=C/c2ccc3ccc(nc3c2)[C@@H](C)NC(=O)[C@@H]2CCCN(N2)C(=O)[C@H](Cc2ccccc2)NC1=O [Compound 120] | – | – | 91 | < 100 |
| C[C@@H]1NC(=O)[C@H](CCn2ccnn2)NC(=O)C(C)(C)/C=C/c2cc3cc(ccc3cn2)[C@@H](C)OC(=O)[C@@H]2CCCN(N2)C1=O [Compound 50] | 12 | – | – | 101 to 1000 |
| CC(C)[C@@H]1NC(=O)CCc2ccc(nc2)-c2cccc(c2)[C@@H](C)OC(=O)[C@@H]2CCCN(N2)C(=O)[C@H](C)NC1=O [Compound 45] | – | – | 80 | < 100 |
| CC(C)[C@H]1C(=O)N[C@@H](C)C(=O)N2CCC[C@H](N2)C(=O)N[C@H](C)c2ccc3ccc(cc3n2)/C=C/C2(C)CCN1C2=O [Compound 84] | – | – | 63 | < 100 |
| CC(C)[C@@H]1NC(=O)C(C)(C)/C=C/c2ccc3c(=O)[nH]c(nc3c2)[C@@H](C)OC(=O)C2CCCN(N2)C(=O)[C@@H](C)NC1=O (some centres unmarked) [Compound 146] | – | – | 24 | < 100 |
| CC(=O)N1CCC2(/C=C/c3ccc4ccc(nc4c3)[C@@H](C)OC(=O)[C@@H]3CCCN(N3)C(=O)[C@H](C)NC(=O)[C@H](C(C)C)NC2=O)CC1 [Compound 135] | – | – | 94 | < 100 |
| CC(C)[C@@H]1NC(=O)CCCCCc2cc3cc(ccc3cn2)[C@@H](C)OC(=O)[C@@H]2CCCN(N2)C(=O)[C@H](C)NC1=O [Compound 62] | – | – | 25 | 101 to 1000 |
| CC(C)[C@@H]1NC(=O)[C@H](C)C/C=C/COc2ccc(F)c(c2)[C@@H](C)OC(=O)C2CCCN(N2)C(=O)[C@H](C)NC1=O (some centres unmarked) [Compound 35] | 94 | < 100 | – | – |
| CC(C)[C@@H]1NC(=O)C2(/C=C/c3ccc4ccc(nc4c3)[C@@H](C)OC(=O)[C@@H]3CCCN(N3)C(=O)[C@H](C)NC1=O)CC2 [Compound 152] | – | – | 100 | < 100 |

| SMILES | inhibition at 1 µM [1, 2] [%] | IC50 (cyclophilin A; TR-FRET) [nM] | inhibition at 1 µM [1, 3] [%] | IC50 (cyclophilin A; read-out: TR-FRET) [nM] |
| --- | --- | --- | --- | --- |
| CC(C)[C@@H]1NC(=O)C(C)(C)CCc2ccc3cnc(cc3c2)[C@@H](C)OC(=O)[C@@H]2CCCN(N2)C(=O)[C@H](C)NC1=O [Compound 18] | – | – | 94 | < 100 |
| CC(C)[C@@H]1NC(=O)C/C=C/c2ccc3nnc(cc3c2)[C@@H](C)OC(=O)[C@@H]2CCCN(N2)C(=O)[C@H](C)NC1=O [Compound 32] | – | – | 71 | < 100 |
| CC(C)[C@@H]1NC(=O)Cc2cccc(c2)-c2cc3cc(ccc3cn2)[C@@H](C)OC(=O)[C@@H]2CCCN(N2)C(=O)[C@H](C)NC1=O [Compound 65] | – | – | 92 | < 100 |
| CC(C)[C@@H]1NC(=O)C2(/C=C/c3ccc4ccc(nc4c3)[C@@H](C)OC(=O)[C@@H]3CCCN(N3)C(=O)[C@H](C)NC1=O)CCN(CC#N)CC2 [Compound 131] | 77 | – | – | < 100 |
| Cc1cc2ccc(/C=C/C(C)(C)C(=O)N[C@H](C(=O)N[C@@H](C)C(=O)N3CCC[C@@H](C(=O)O)N3)C(C)C)cc2nc1[C@@H](C)O [Compound 162] | – | – | 0 | 1000 to 10000 |
| CC(C)[C@@H]1NC(=O)C(C)(C)/C=C/c2ccc3ccc(nc3c2)[C@@H](C)OC(=O)[C@]2(C)CCCN(N2)C(=O)[C@H](C)NC1=O [Compound 119] | – | – | 98 | < 100 |
| C[C@@H]1NC(=O)[C@H](C2CCCCC2)NC(=O)C/C=C/c2cc3cc(ccc3cn2)[C@@H](C)OC(=O)[C@@H]2CCCN(N2)C1=O [Compound 53] | – | – | 89 | 101 to 1000 |
| COC[C@@]1(C)/C=C/c2ccc3ccc(nc3c2)[C@@H](C)OC(=O)[C@@H]2CCCN(N2)C(=O)[C@H](C)NC(=O)[C@H](C(C)C)NC1=O [Compound 107] | – | – | 100 | < 100 |
| CC(C)[C@@H]1NC(=O)C(C)(C)c2cccc(c2)-c2cc3cc(ccc3cn2)[C@@H](C)OC(=O)C2CCCN(N2)C(=O)[C@H](C)NC1=O (some centres unmarked) [Compound 67] | – | – | 97 | < 100 |
| CC(C)[C@@H]1NC(=O)C(C)(C)/C=C/c2ccc3ccc(nc3c2)[C@@H](C)OC(=O)[C@@H]2CCCN(N2)C(=O)[C@H](CO)NC1=O [Compound 82] | – | – | 99 | < 100 |
| Cc1cc2ccc3cc2nc1[C@@H](C)OC(=O)[C@@H]1CCCN(N1)C(=O)[C@H](C)NC(=O)[C@H](C(C)C)NC(=O)C(C)(C)/C=C/3 [Compound 163] | – | – | 100 | < 100 |
| CC(C)[C@@H]1NC(=O)C(C)(C)/C=C/c2ccc3ccc(nc3c2)[C@H]2CCCN2C(=O)[C@@H]2CCCN(N2)C(=O)[C@H](C)NC1=O (single isomer, unassigned) [Compound 150] | – | – | 95 | < 100 |
| COCCC1(C)/C=C/c2ccc3ccc(nc3c2)[C@@H](C)OC(=O)[C@@H]2CCCN(N2)C(=O)[C@H](C)NC(=O)[C@H](C(C)C)NC1=O (single isomer, unassigned) [Compound 103] | – | – | 100 | < 100 |
| C[C@@H]1NC(=O)[C@H](CCn2cc(CO)nn2)NC(=O)C(C)(C)/C=C/c2cc3cc(ccc3cn2)[C@@H](C)OC(=O)[C@@H]2CCCN(N2)C1=O [Compound 72] | 0 | – | – | 101 to 1000 |
| CC(C)[C@@H]1NC(=O)C(C)(C(C)(C)O)/C=C/c2ccc3ccc(nc3c2)[C@@H](C)OC(=O)[C@@H]2CCCN(N2)C(=O)[C@H](C)NC1=O (some centres unmarked) [Compound 101] | – | – | 99 | < 100 |
| CC(C)[C@@H]1NC(=O)C2(/C=C/c3ccc4ccc(nc4c3)[C@@H](C)OC(=O)[C@@H]3CCCN(N3)C(=O)[C@H](C)NC1=O)CCN(C(=O)OC(C)(C)C)CC2 [Compound 126] | – | – | 100 | < 100 |
| COCCC1(C)/C=C/c2ccc3ccc(nc3c2)[C@@H](C)OC(=O)[C@@H]2CCCN(N2)C(=O)[C@H](C)NC(=O)[C@H](C(C)C)NC1=O (single isomer, unassigned) [Compound 102] | – | – | 100 | < 100 |
| CC(C)[C@@H]1NC(=O)C2(CCOCC2)CCc2cc3cc(ccc3cn2)[C@@H](C)OC(=O)[C@@H]2CCCN(N2)C(=O)[C@H](C)NC1=O [Compound 60] | – | – | 65 | 101 to 1000 |
